Data from US7109216B2 (priority 2001, dated 2006).
Where two headings read alike, the source gives them in different places.

Key:
[1] = target: T1, human cannabinoid CB1 receptor (Homo sapiens, UniProt P21554); experiment: Cannabinoid CB1 antagonistic activity, forskolin-induced cAMP accumulation in CHO cells; type: cell-based; design: expressed in transfected cells; host or cells: CHO cells
Description: The cannabinoid CB1 antagonistic activity of compounds of the invention was determined by functional studies using CHO cells in which human cannabinoid CB1 receptors were stably expressed. Adenylyl cyclase was stimulated using forskolin and measured by quantifying the amount of accumulated cyclic AMP. Concomitant activation of CB1 receptors by CB1 receptor agonists (e.g. CP-55,940 or (R)-WIN-55,212–2) can attenuate the forskolin-induced accumulation of cAMP in a concentration-dependent manner. This CB1 receptor-mediated response can be antagonized by CB1 receptor antagonists such as the compounds of the invention.

[2] = target: T1, human cannabinoid CB1 receptor; experiment: biochemical; type: binding; design: expressed in transfected cells; host or cells: Chinese hamster ovary (CHO) cells, membrane preparation; details: [3H]CP-55,940 radioligand, CHO cell membranes stably transfected with human CB1
Description: After incubation of a freshly prepared cell membrane preparation with the [^3H]-ligand, with or without addition of compounds of the invention, separation of bound and free ligand was performed by filtration over glassfiber filters. Radioactivity on the filter was measured by liquid scintillation counting.

[3] = antagonism of CB1 agonist (e.g. CP-55,940 or (R)-WIN-55,212-2) effect on forskolin-induced cAMP accumulation, CHO cells expressing human CB1, read-out: hCB1 pA2 (converted)

T1 sequence (P21554 whole entry): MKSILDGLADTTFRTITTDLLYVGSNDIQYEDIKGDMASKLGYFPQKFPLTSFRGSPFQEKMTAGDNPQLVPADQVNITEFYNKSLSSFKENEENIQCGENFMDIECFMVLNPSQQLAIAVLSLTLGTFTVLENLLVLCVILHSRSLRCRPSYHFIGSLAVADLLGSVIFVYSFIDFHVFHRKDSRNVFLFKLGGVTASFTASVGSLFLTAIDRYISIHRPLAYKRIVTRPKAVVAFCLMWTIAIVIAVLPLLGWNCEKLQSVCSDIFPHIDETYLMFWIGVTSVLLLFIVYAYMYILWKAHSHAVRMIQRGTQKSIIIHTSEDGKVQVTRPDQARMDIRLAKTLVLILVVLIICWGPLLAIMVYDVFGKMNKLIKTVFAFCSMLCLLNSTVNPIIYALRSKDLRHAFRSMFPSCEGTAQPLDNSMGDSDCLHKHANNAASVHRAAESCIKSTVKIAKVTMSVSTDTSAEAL

Structure (SMILES)	Ki ([2]; hCB1 pKi) [nM]	melting point [°C]	other results
O=C(NN1CCCCC1)c1cn(-c2ccc(Cl)cc2)c(-c2ccc(Cl)cc2Cl)n1 [Example 1, 1-(4-chlorophenyl)-2-(2,4-dichlorophenyl)-N-(piperidin-1-yl)-1H-imidazole-4-carboxamide]	12.6	–	hCB1 pA2 ([1]; antagonism of CB1 agonist (e.g. CP-55,940 or (R)-WIN-55,212-2) effect on forskolin-induced cAMP accumulation, CHO cells expressing human CB1): 8.2
O=C(NN1CCCC1)c1cn(-c2ccc(Cl)cc2)c(-c2ccc(Cl)cc2Cl)n1 [Example 2, 1-(4-Chlorophenyl)-2-(2,4-dichlorophenyl)-N-(pyrrolidin-1-yl)-1H-imidazole-4-carboxamide]	100	–	Kb [1, 3]: 25.1 nM
CC(C)(C)ONC(=O)c1cn(-c2ccc(Cl)cc2)c(-c2ccc(Cl)cc2Cl)n1 [Example 3, N-(t-Butoxy)-1-(4-chlorophenyl)-2-(2,4-dichlorophenyl)-1H-imidazole-4-carboxamide]	–	–	Kb [1]: 31.6 nM; Ki ([2]; read-out: hCB1 pKi (converted)): 158 nM
O=C(NC1CCCCC1)c1cn(-c2ccc(Cl)cc2)c(-c2ccc(Cl)cc2Cl)n1 [Example 5, 1-(4-Chlorophenyl)-N-cyclohexyl-2-(2,4-dichlorophenyl)-1H-imidazole-4-carboxamide]	79.4	–	Kb [1, 3]: 7.94 nM
Cc1c(C(=O)NOC(C)(C)C)nc(-c2ccc(Cl)cc2Cl)n1-c1ccc(Br)cc1 [Example 16, 1-(4-Bromophenyl)-N-(t-butoxy)-2-(2,4-dichlorophenyl)-5-methyl-1H-imidazole-4-carboxamide]	–	–	Kb [1]: 15.8 nM
CCCCCNC(=O)c1nc(-c2ccc(Cl)cc2F)n(-c2ccc(Cl)cc2)c1C [Example 67, 1-(4-Chlorophenyl)-2-(2-fluoro-4-chlorophenyl)-5-methyl-N-(n-pentyl)-1H-imidazole-4-carboxamide]	398	115	–
Cc1c(C(=O)NC2CCCCC2)nc(-c2ccc(Cl)cc2F)n1-c1ccc(Cl)cc1 [Example 68, 1-(4-Chlorophenyl)-N-(cyclohexyl)-2-(2-fluoro-4-chlorophenyl)-5-methyl-1H-imidazole-4-carboxamide]	200	188	–
Cc1ccc(-c2nc(C(=O)NC3CCCCC3)c(C)n2-c2ccc(Cl)cc2)n1C [Example 69, 1-(4-Chlorophenyl)-N-(cyclohexyl)-2-(1,5-dimethyl-1H-pyrrol-2-yl)-5-methyl-1H-imidazole-4-carboxamide]	39.8	188 to 189	–
Cc1ccc(-c2nc(C(=O)NN3CCCCC3)c(C)n2-c2ccc(Cl)cc2)n1C [Example 70, 1-(4-Chlorophenyl)-2-(1,5-dimethyl-1H-pyrrol-2-yl)-5-methyl-N-(piperidin-1-yl)-1H-imidazole-4-carboxamide]	5.01	208 to 210	–
Cc1c(C(=O)NN2CCCCC2)nc(-c2ccccc2Cl)n1-c1cccc(F)c1 [Example 71, 2-(2-Chlorophenyl)-1-(3-fluorophenyl)-5-methyl-N-(piperidin-1-yl)-1H-imidazole-4-carboxamide]	39.8	236 to 238	–
Cc1c(C(=O)NC2CCCCC2)nc(-c2ccccc2Cl)n1-c1cccc(F)c1 [Example 73, 2-(2-Chlorophenyl)-N-cyclohexyl-1-(3-fluorophenyl)-5-methyl-1H-imidazole-4-carboxamide]	12.6	180 to 182.5	–
Cc1c(C(=O)NCCc2ccc(F)cc2)nc(-c2ccccc2Cl)n1-c1cccc(F)c1 [Example 74, 2-(2-Chlorophenyl)-1-(3-fluorophenyl)-N-(2-(4-fluorophenyl)ethyl)-5-methyl-1H-imidazole-4-carboxamide]	–	123.5 to 126	Ki ([2]; read-out: hCB1 pKi (converted)): 398 nM
CCc1c(C(=O)NN2CCCCC2)nc(-c2ccc(Cl)cc2Cl)n1-c1ccc(Cl)cn1 [Example 75, 1-(5-Chloropyridin-2-yl)-2-(2,4-dichlorophenyl)-5-ethyl-N-(piperidin-1-yl)-1H-imidazole-4-carboxamide]	100	146	–
CCc1c(C(=O)NN2CCOCC2)nc(-c2ccc(Cl)cc2Cl)n1-c1ccc(Cl)cn1 [Example 76, 1-(5-Chloropyridin-2-yl)-2-(2,4-dichlorophenyl)-5-ethyl-N-(4-morpholinyl)-1H-imidazole-4-carboxamide]	–	223	Ki ([2]; read-out: hCB1 pKi (converted)): 251 nM
CCc1c(C(=O)NN2CCCCCC2)nc(-c2ccc(Cl)cc2Cl)n1-c1ccc(Cl)cn1 [Example 77, N-(1-Azepanyl)-1-(5-Chloropyridin-2-yl)-2-(2,4-dichlorophenyl)-5-ethyl-1H-imidazole-4-carboxamide]	31.6	177	–
CCc1c(C(=O)NC2CCCCC2)nc(-c2ccc(Cl)cc2Cl)n1-c1ccc(Cl)cn1 [Example 78, 1-(5-Chloropyridin-2-yl)-N-cyclohexyl-2-(2,4-dichlorophenyl)-5-ethyl-1H-imidazole-4-carboxamide]	3.16	149	–
Cc1c(C(=O)Nc2ccccc2)nc(-c2ccc(Cl)cc2Cl)n1-c1ccc(Cl)cc1 [Example 82, 1-(4-Chlorophenyl)-2-(2,4-dichlorophenyl)-5-methyl-N-phenyl-1H-imidazole-4-carboxamide]	2.51	91 to 95	–
Cc1c(C(=O)NOC2CCCCO2)nc(-c2ccc(Cl)cc2Cl)n1-c1ccc(Cl)cc1 (stereo not drawn) [Example 83, 1-(4-Chlorophenyl)-2-(2,4-dichlorophenyl)-5-methyl-N-(tetrahydro-2H-pyran-2-yloxy)-1H-imidazole-4-carboxamide]	3.98	128 to 133	–
Cc1c(C(=O)NCCF)nc(-c2ccc(Cl)cc2Cl)n1-c1ccc(Cl)cc1 [Example 85, 1-(4-Chlorophenyl)-2-(2,4-dichlorophenyl)-N-(2-fluoroethyl)-5-methyl-1H-imidazole-4-carboxamide]	25.1	128 to 133	–
Cc1c(C(=O)NCc2ccc(F)cc2)nc(-c2ccc(Cl)cc2Cl)n1-c1ccc(Cl)cc1 [Example 90, 1-(4-Chlorophenyl)-2-(2,4-dichlorophenyl)-N-(4-fluorobenzyl)-5-methyl-1H-imidazole-4-carboxamide]	10	165 to 166	–
Cc1c(C(=O)NN2CCCCC2)nc(-c2cc(Cl)ccc2Cl)n1-c1ccccc1 [Example 95, 2-(2,5-Dichlorophenyl)-5-methyl-1-phenyl-N-(piperidin-1-yl)-1H-imidazole-4-carboxamide]	63.1	227	–
Cc1c(C(=O)NC2CCCCC2)nc(-c2cc(Cl)ccc2Cl)n1-c1ccccc1 [Example 96, N-Cyclohexyl-2-(2,5-dichlorophenyl)-5-methyl-1-phenyl-1H-imidazole-4-carboxamide]	6.31	236	–
Cc1c(C(=O)Nc2cccc(C(F)(F)F)c2)nc(-c2ccc(Cl)cc2Cl)n1-c1ccc(Cl)cc1 [Example 104, 1-(4-Chlorophenyl)-2-(2,4-dichlorophenyl)-5-methyl-N-(3-(trifluoromethyl)phenyl)-1H-imidazole-4-carboxamide]	6.31	177	–
Cc1c(C(=O)NCc2cccc(C(F)(F)F)c2)nc(-c2ccc(Cl)cc2Cl)n1-c1ccc(Cl)cc1 [Example 105, 1-(4-Chlorophenyl)-2-(2,4-dichlorophenyl)-5-methyl-N-(3-(trifluoromethyl)benzyl)-1H-imidazole-4-carboxamide]	31.6	138 to 140	–
O=C(NC1CCCCC1)c1nc(-c2ccc(Cl)cc2Cl)n(-c2ccc(Cl)cc2)c1I [Example 112, 1-(4-Chlorophenyl)-N-cyclohexyl-2-(2,4-dichlorophenyl)-5-iodo-1H-imidazole-4-carboxamide]	6.31	226 to 230	–
N#Cc1c(C(=O)NC2CCCCC2)nc(-c2ccc(Cl)cc2Cl)n1-c1ccc(Cl)cc1 [Example 113, 1-(4-Chlorophenyl)-5-cyano-N-cyclohexyl-2-(2,4-dichlorophenyl)-1H-imidazole-4-carboxamide]	15.8	157 to 158	–
O=C(NN1CCCCC1)c1nc(-c2ccc(Cl)cc2Cl)n(-c2ccc(Cl)cc2)c1CF [Example 114, 1-(4-chlorophenyl)-2-(2,4-dichlorophenyl)-5-fluoromethyl-N-(piperidin-1-yl)-1H-imidazole-4-carboxamide]	63.1	162 to 163	–
O=C(NN1CCCCC1)c1nc(-c2ccc(Cl)cc2Cl)n(-c2ccc(Cl)cc2)c1CO [Example 115, 1-(4-chlorophenyl)-2-(2,4-dichlorophenyl)-5-hydroxymethyl-N-(piperidin-1-yl)-1H-imidazole-4-carboxamide]	31.6	212 to 214	–
CCc1c(C(=O)NN2CCCCC2)nc(-c2ccccc2Cl)n1-c1ccc(Cl)cn1 [Example 116, 1-(5-chloropyrid-2-yl)-2-(2-chlorophenyl)-5-ethyl-N-(piperidin-1-yl)-1H-imidazole-4-carboxamide]	12.6	217 to 219	–
